# Patent US6844353B2, “Fungicidal properties of sampangine and its analogs to agriculturally important fungal plant pathogens” (The United States of America as represented by the …, priority 2003, dated 2005)
# Read-outs that look alike come from different tables or passages of the source.
# Key:
# C. acutatum = test: 96-well microtiter plate assay, fungal growth inhibition; format: cell-based, Colletotrichum acutatum; conditions: Colletotrichum acutatum, C. acutatum, read-out: Percent inhibition−Percent Stimulation±SEM
# C. fragariae = test: as above; format: cell-based, Colletotrichum fragariae; conditions: Colletotrichum fragariae, C. fragariae, read-out: Percent inhibition−Percent Stimulation±SEM
# [1] = system: C. fragariae isolate CF-75; test: Detached strawberry leaf assay; format: in vivo, Colletotrichum fragariae; conditions: detached strawberry leaves (cultivar Chandler), five days after application
# Excerpt: Strawberry plants of the cultivar Chandler were maintained in a warm greenhouse under conditions suitable for optimum vegetative growth. The youngest fully expanded leaf with the entire petiole from each plant was collected. The petiole of each leaf was inserted into a small test tube (10×4 mm) and filled with sterile distilled water. The left leaflet of each leaf was inoculated with C. fragariae isolate CF-75 (1.5×10^6 conidia/ml) using a hand pump sprayer. The inoculated leaves were placed in a dew chamber and incubated overnight at 30° C. and 100% relative humidity, removed from the dew chamber and allowed to dry. The test compound was applied using a chromatography sprayer until the upper surface of each leaflet was coated. After allowing the leaves to air dry for 2 hours, the right leaflet of each leaf was inoculated with C. fragariae isolate CF-75. The leaves were incubated in the dew chamber at 30° C. and 100% relative humidity for 48 hours. The leaves were then removed from the dew chamber and held in a moist chamber for 3 days (total of five days since test compounds were applied). The number of lesions on each leaflet were then counted.
# B. cinerea = test: 96-well microtiter plate assay, fungal growth inhibition; format: cell-based, Botrytis cinerea; conditions: Botrytis cinerea, B. cinerea, read-out: Percent inhibition−Percent Stimulation±SEM
# F. oxysporum = test: as above; format: cell-based, Fusarium oxysporum; conditions: Fusarium oxysporum, F. oxysporum, read-out: Percent inhibition−Percent Stimulation±SEM
# Method in brief: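 Dose-response growth inhibition uses three final concentrations, 0.3, 3.0 and 30.0 μM, each tested in duplicate against conidial inoculum. Plates sit at 24±1° C. on a 12 hour photoperiod, and absorbance at 620 nm is taken at 46 and 72 hours.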
# C. gloeosporioides = test: as above; format: cell-based, Colletotrichum gloeosporioides; conditions: Colletotrichum gloeosporioides, C. gloeosporioides, read-out: Percent inhibition−Percent Stimulation±SEM
structure (smiles),measurement,setting,value
O=C1c2ccccc2-c2nccc3ccnc1c23 [Sampangine],inhibition at 0.3 µM,C. acutatum; 48 hrs,13.6 ± 5.8%
same,inhibition at 0.3 µM,C. acutatum; 72 hrs,6 ± 5.1%
same,inhibition at 3 µM,C. acutatum; 48 hrs,96.8 ± 0.5%
same,inhibition at 3 µM,C. acutatum; 72 hrs,-6.2 ± 3.8%
same,inhibition at 30 µM,C. acutatum; 48 hrs,100 ± 0.6%
same,inhibition at 30 µM,C. acutatum; 72 hrs,100 ± 0.2%
same,inhibition at 0.3 µM,C. fragariae; 48 hrs,55.7 ± 4.5%
same,inhibition at 0.3 µM,C. fragariae; 72 hrs,32.6 ± 5%
same,inhibition at 3 µM,C. fragariae; 48 hrs,96.9 ± 0.8%
same,inhibition at 3 µM,C. fragariae; 72 hrs,96.8 ± 0.4%
same,inhibition at 30 µM,C. fragariae; 48 hrs,99.6 ± 0.9%
same,inhibition at 30 µM,C. fragariae; 72 hrs,100 ± 0.4%
same,Disease severity scores (# disease lesions),[1]; Concentration 625 (unit not given),8.31
same,Disease severity scores (# disease lesions),[1]; Concentration 1250 (unit not given),1.26
same,Disease severity scores (# disease lesions),[1]; Concentration 2500 (unit not given),0.80
same,inhibition at 0.3 µM,B. cinerea; 48 hrs,27.2 ± 18.6%
same,inhibition at 0.3 µM,B. cinerea; 72 hrs,37 ± 21.8%
same,inhibition at 3 µM,B. cinerea; 48 hrs,29.7 ± 24.8%
same,inhibition at 3 µM,B. cinerea; 72 hrs,40.1 ± 20.6%
same,inhibition at 30 µM,B. cinerea; 48 hrs,36.9 ± 26.7%
same,inhibition at 30 µM,B. cinerea; 72 hrs,47.5 ± 27.1%
same,inhibition at 0.3 µM,F. oxysporum; 48 hrs,14.7 ± 4.4%
same,inhibition at 0.3 µM,F. oxysporum; 72 hrs,4.9 ± 2.3%
same,inhibition at 3 µM,F. oxysporum; 48 hrs,86.6 ± 2.8%
same,inhibition at 3 µM,F. oxysporum; 72 hrs,42.9 ± 3.1%
same,inhibition at 30 µM,F. oxysporum; 48 hrs,100 ± 0.4%
same,inhibition at 30 µM,F. oxysporum; 72 hrs,100 ± 0.4%
same,inhibition at 0.3 µM,C. gloeosporioides; 48 hrs,63.8 ± 8.6%
same,inhibition at 0.3 µM,C. gloeosporioides; 72 hrs,32.9 ± 8.3%
same,inhibition at 3 µM,C. gloeosporioides; 48 hrs,98.3 ± 0.6%
same,inhibition at 3 µM,C. gloeosporioides; 72 hrs,98.8 ± 0.4%
same,inhibition at 30 µM,C. gloeosporioides; 48 hrs,99.2 ± 0.8%
same,inhibition at 30 µM,C. gloeosporioides; 72 hrs,99.7 ± 0.4%
